Reference: PubChem BioAssay AID652246 (Sanford-Burnham Center for Chemical Genomics, 2013)
Active and inactive are the calls of the source. How the calls were made is not given here.

System: HT1080 viability, ATPLite luminescence, overnight
Test: HT1080 parental cell cytotoxicity, dose response, cytotoxicity control for MT1-MMP activation inhibitor project, ATPLite luminescence, set 2 (AID 652246)

SMILES | IC50
COc1ccccc1N=Nc1nc(-c2ccccc2)c(-c2ccccc2)[nH]1 | > 80 µM (inactive)
CN1/C(=C/C=C/c2n(C)c3cc([N+](=O)[O-])c([N+](=O)[O-])cc3[n+]2C)C(C)(C)c2ccccc21 | 39.5 µM (inactive)
Cc1ccc(C(=O)NNc2c3ccccc3nc3ccccc23)cc1 | > 80 µM (inactive)
O=c1cc2oc3cc(O)c(O)cc3c(-c3ccccc3[N+](=O)[O-])c-2cc1O | > 80 µM (inactive)
CN1/C(=C\C(=O)c2cncc(Br)c2)C(C)(C)c2ccccc21 | 30.2 µM (inactive)
COc1cc(-c2cc(=O)c3c(O)c(OC)c(OC)cc3o2)cc(OC)c1O | > 80 µM (inactive)
O=S(=O)(O)c1cc(O)c(N=Nc2ccc(O)cc2O)c2ccccc12 | 30.5 µM (inactive)
Cn1cccc1/C=C1/C(=O)NC(=S)N(Cc2ccc(F)cc2)C1=O | > 80 µM (inactive)
C[n+]1c2ccccc2nc2ccc(NCCO)cc21 | > 80 µM (inactive)
COc1ccc2nc(-n3c(O)c(C4=c5ccccc5=NC4=O)[nH]c3=S)sc2c1 | > 80 µM (inactive)
Oc1ccc(N=Nc2c(O)ccc3ccccc23)cc1 | 54.8 µM (inactive)
O=c1ccc2c(-c3ccccc3S(=O)(=O)O)c3ccc(O)c(O)c3oc-2c1O | > 80 µM (inactive)
O=C(NNc1c2ccccc2nc2ccccc12)c1ccccc1O | > 80 µM (inactive)
CN(C)/C=C/c1oc2ccc(O)cc2c1[N+](=O)[O-] | > 80 µM (inactive)
CN(CCCC(=O)O)c1ccc(N=Nc2ccc([N+](=O)[O-])cc2)cc1 | 15.8 µM
CC[n+]1c(/C=C/Nc2ccccc2)sc2ccccc21 | > 80 µM (inactive)
Cc1c(C(=O)O)c(O)cc2c1C(=O)c1c(O)c([C@@H]3O[C@H](CO)[C@@H](O)[C@H](O)[C@H]3O)c(O)c(O)c1C2=O | > 80 µM (inactive)
CN1/C(=C\C=N\NC(=O)c2ccc(O)cc2)C(C)(C)c2ccccc21 | > 80 µM (inactive)
CCN1C(=O)/C(=C2\C=Cc3ccccc3N2CC)SC1=S | > 80 µM (inactive)
COc1ccc(OCC(=O)NNc2c3ccccc3nc3ccccc23)cc1 | > 80 µM (inactive)
Nc1nc(-c2ccccc2)c(N=Nc2ccccc2Cl)s1 | > 80 µM (inactive)
